In patent publication US9957264B2 (Merck Sharp & Dohme Corp., priority 2013, dated 2018):

Key:
[1] = target: JAK1 (recombinant purified GST-tagged catalytic domain) (Homo sapiens (Human), UniProt P23458); test: Jak Biochemical HTRF Assay (JAK1); conditions: [ATP] 31.8 μM
Outline: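 Phosphorylation of a common biotinylated peptide by each catalytic domain is measured by HTRF. The ATP-started reaction runs 120 min at room temperature before EDTA quench and detection.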

[2] = target: JAK2 (recombinant purified GST-tagged catalytic domain) (Homo sapiens (Human), UniProt O60674); test: Jak Biochemical HTRF Assay (JAK2); conditions: [ATP] 8.5 μM
JAK2 (recombinant purified GST-tagged catalytic domain), sequence (O60674 849-1124): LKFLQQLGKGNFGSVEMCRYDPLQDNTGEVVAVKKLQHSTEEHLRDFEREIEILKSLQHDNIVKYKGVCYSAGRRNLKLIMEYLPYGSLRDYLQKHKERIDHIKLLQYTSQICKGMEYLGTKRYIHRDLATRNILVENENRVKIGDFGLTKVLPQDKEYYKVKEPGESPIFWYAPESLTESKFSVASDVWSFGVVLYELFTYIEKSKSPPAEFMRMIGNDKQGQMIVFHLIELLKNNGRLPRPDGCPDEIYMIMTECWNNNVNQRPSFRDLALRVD
Method: Jak Biochemical HTRF Assay Protocol
The ability of compounds to inhibit the activity of JAK1, JAK2, JAK3, and Tyk2 was measured using a recombinant purified GST-tagged catalytic domain for each enzyme (Invitrogen JAK1 #M4290, JAK2 #M4290, JAK3 #M4290, Tyk2 #M4290) in an HTRF format biochemical assay. […] The basic assay protocol is as follows: First, 250 nL of diluted compounds in DMSO were dispensed into the wells of a dry 384-well Black plate (Greiner #781076) using a Labcyte Echo 555 acoustic dispenser. Subsequent reagent additions employed an Agilent Bravo. […] After equilibration, 2 μL of 10×ATP in 1× assay buffer was added to initiate the kinase reaction and the plates were shaken and then incubated at room temperature for 120 minutes. […] Plates were shaken and centrifuged and then incubated 60 minutes at room temperature and then read on a Perkin Elmer Envision (λex=337 nm, λem=665 and 615 nm, TRF delay time=20 μs). HTRF signal=10,000*665 nm reading/615 nm reading. After normalization to untreated controls, the percent inhibition of the HTRF signal at each compound concentration was calculated. The plot of percent inhibition versus the log of compound concentration was fit with a 4-parameter dose response equation to calculate IC50 values.
Final reaction conditions were:
Examples of the instant invention were evaluated in JAK1 and JAK2 in vitro binding assays as described above.

JAK1 (recombinant purified GST-tagged catalytic domain), sequence (P23458 875-1153): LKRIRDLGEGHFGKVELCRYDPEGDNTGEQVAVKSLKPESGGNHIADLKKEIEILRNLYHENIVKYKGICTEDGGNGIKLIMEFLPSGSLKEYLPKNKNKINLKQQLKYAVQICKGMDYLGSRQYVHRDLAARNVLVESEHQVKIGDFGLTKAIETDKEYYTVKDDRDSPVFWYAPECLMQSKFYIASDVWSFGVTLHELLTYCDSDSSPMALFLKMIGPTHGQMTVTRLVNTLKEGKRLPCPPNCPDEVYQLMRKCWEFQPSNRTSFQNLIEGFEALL

Row | SMILES | IC50 [1] [nM] | IC50 [2] [nM]
1 | Cc1cc(Nc2nn([C@]3(CC#N)CC[C@@H](C(=O)OC(C)(C)C)OC3)c3cc[nH]c(=O)c23)ccc1C(=O)N1CCSC1C (single isomer, unassigned) [Example 5-157, (2S,5S)-tert-butyl 5-(cyanomethyl)-5-(3-((3-methyl-4-((S or R)-2-methylthiazolidine-3-carbonyl)phenyl)amino)-4-oxo-4,5-dihydro-1H-pyrazolo[4,3-c]pyridin-1-yl)tetrahydro-2H-pyran-2-carboxylate] | 0.19 | 0.27
2 | CC(C)OC(=O)C(C)(C)C(O)(c1ccc(Nc2nn([C@]3(CC#N)CC[C@@H](C(=O)OC(C)(C)C)OC3)c3cc[nH]c(=O)c23)cc1)C(F)(F)F (single isomer, unassigned) [Example 5-162, (2S,5S)-tert-butyl 5-(cyanomethyl)-5-(4-oxo-3-((4-((S or R)-1,1,1-trifluoro-2-hydroxy-4-isopropoxy-3,3-dimethyl-4-oxobutan-2-yl)phenyl)amino)-4,5-dihydro-1H-pyrazolo[4,3-c]pyridin-1-yl)tetrahydro-2H-pyran-2-carboxylate] | 2.76 | 12.9
3 | CC(C)OC(=O)C(C)(C)C(O)(c1ccc(Nc2nn([C@]3(CC#N)CC[C@@H](C(=O)OC(C)(C)C)OC3)c3cc[nH]c(=O)c23)cc1)C(F)(F)F (single isomer, unassigned) [Example 5-163, (2S,5S)-tert-butyl 5-(cyanomethyl)-5-(4-oxo-3-((4-((S or R)-1,1,1-trifluoro-2-hydroxy-4-isopropoxy-3,3-dimethyl-4-oxobutan-2-yl)phenyl)amino)-4,5-dihydro-1H-pyrazolo[4,3-c]pyridin-1-yl)tetrahydro-2H-pyran-2-carboxylate] | 1.96 | 2.21
4 | CC(C)(C)OC(=O)[C@@H]1CC[C@@](CC#N)(n2nc(Nc3ccc4c(c3)CC(C)(C)C4(O)C(F)(F)F)c3c(=O)[nH]ccc32)CO1 (single isomer, unassigned) [Example 5-164, (2S,5S)-tert-butyl 5-(cyanomethyl)-5-(3-(((S or R)-1-hydroxy-2,2-dimethyl-1-(trifluoromethyl)-2,3-dihydro-1H-inden-5-yl)amino)-4-oxo-4,5-dihydro-1H-pyrazolo[4,3-c]pyridin-1-yl)tetrahydro-2H-pyran-2-carboxylate] | 0.59 | 0.68
5 | CC(C)(C)OC(=O)[C@@H]1CC[C@@](CC#N)(n2nc(Nc3ccc4c(c3)CC(C)(C)C4(O)C(F)(F)F)c3c(=O)[nH]ccc32)CO1 (single isomer, unassigned) [Example 5-165, (2S,5S)-tert-butyl 5-(cyanomethyl)-5-(3-(((S or R)-1-hydroxy-2,2-dimethyl-1-(trifluoromethyl)-2,3-dihydro-1H-inden-5-yl)amino)-4-oxo-4,5-dihydro-1H-pyrazolo[4,3-c]pyridin-1-yl)tetrahydro-2H-pyran-2-carboxylate] | 0.46 | 1
6 | CC(C)(C)OC(=O)[C@@H]1CC[C@@](CC#N)(n2nc(Nc3ccc(C(O)C(F)(F)F)cc3)c3c(=O)[nH]ccc32)CO1 (single isomer, unassigned) [Example 5-168, (2S,5S)-tert-butyl 5-(cyanomethyl)-5-(4-oxo-3-((4-((S or R)-2,2,2-trifluoro-1-hydroxyethyl)phenyl)amino)-4,5-dihydro-1H-pyrazolo [4,3-c]pyridin-1-yl)tetrahydro-2H-pyran-2-carboxylate] | 0.12 | 0.51
7 | CC(C)(C)OC(=O)[C@@H]1CC[C@@](CC#N)(n2nc(Nc3ccc(C(O)C(F)(F)F)cc3)c3c(=O)[nH]ccc32)CO1 (single isomer, unassigned) [Example 5-169, (2S,5S)-tert-butyl 5-(cyanomethyl)-5-(4-oxo-3-((4-((S or R)-2,2,2-trifluoro-1-hydroxyethyl)phenyl)amino)-4,5-dihydro-1H-pyrazolo [4,3-c]pyridin-1-yl)tetrahydro-2H-pyran-2-carboxylate] | 0.1 | 0.41
8 | CC(C)(C)OC(=O)[C@@H]1CC[C@@](CC#N)(n2nc(Nc3ccc(C(C)(O)C(F)(F)F)cc3)c3c(=O)[nH]ccc32)CO1 (single isomer, unassigned) [Example 5-170, (2S,5S)-tert-butyl 5-(cyanomethyl)-5-(4-oxo-3-((4-((S or R)-1,1,1-trifluoro-2-hydroxypropan-2-yl)phenyl)amino)-4,5-dihydro-1H-pyrazolo[4,3-c]pyridin-1-yl)tetrahydro-2H-pyran-2-carboxylate] | 0.14 | 0.48
9 | CC(C)(C)OC(=O)[C@@H]1CC[C@@](CC#N)(n2nc(Nc3ccc(C(C)(O)C(F)(F)F)cc3)c3c(=O)[nH]ccc32)CO1 (single isomer, unassigned) [Example 5-171, (2S,5S)-tert-butyl 5-(cyanomethyl)-5-(4-oxo-3-((4-((S or R)-1,1,1-trifluoro-2-hydroxypropan-2-yl)phenyl)amino)-4,5-dihydro-1H-pyrazolo[4,3-c]pyridin-1-yl)tetrahydro-2H-pyran-2-carboxylate] | 0.07 | 0.18
10 | COC(C)(c1ccc(Nc2nn([C@]3(CC#N)CC[C@@H](C(=O)OC(C)(C)C)OC3)c3cc[nH]c(=O)c23)cc1)C(F)(F)F (single isomer, unassigned) [Example 5-172, (2S,5S)-tert-butyl 5-(cyanomethyl)-5-(4-oxo-3-((4-((S or R)-1,1,1-trifluoro-2-methoxypropan-2-yl)phenyl)amino)-4,5-dihydro-1H-pyrazolo[4,3-c]pyridin-1-yl)tetrahydro-2H-pyran-2-carboxylate] | 0.75 | 1.14
11 | CCNC(c1ccc(Nc2nn([C@@]3(CC#N)CCCC[C@H]3F)c3cc[nH]c(=O)c23)cc1)C(F)(F)F (single isomer, unassigned) [Example 5-173, {(1R,2R)-1-[3-({4-[(1R or 1S)-1-(ethylamino)-2,2,2-trifluoroethyl]phenyl}amino)-4-oxo-4,5-dihydro-1H-pyrazolo [4,3-c]pyridin-1-yl]-2-fluorocyclohexyl} acetonitrile] | 0.07 | 0.07
12 | CCNC(c1ccc(Nc2nn([C@@]3(CC#N)CCCC[C@H]3F)c3cc[nH]c(=O)c23)cc1)C(F)(F)F (single isomer, unassigned) [Example 5-174, {(1R,2R)-1-[3-({4-[(1R or 1S)-1-(ethylamino)-2,2,2-trifluoroethyl]phenyl}amino)-4-oxo-4,5-dihydro-1H-pyrazolo [4,3-c]pyridin-1-yl]-2-fluorocyclohexyl} acetonitrile] | 0.06 | 0.06
13 | N#CC[C@]1(n2nc(Nc3ccc(C(N)C(F)(F)F)cc3)c3c(=O)[nH]ccc32)CCCC[C@H]1F (single isomer, unassigned) [Example 5-176, {(1R,2R)-1-[3-({4-[(1R or 1S)-1-amino-2,2,2-trifluoroethyl]phenyl}amino)-4-oxo-4,5-dihydro-1H-pyrazolo [4,3-c]pyridin-1-yl]-2-fluorocyclohexyl} acetonitrile] | 0.05 | 0.09
14 | N#CC[C@]1(n2nc(Nc3ccc(C(N)C(F)(F)F)cc3)c3c(=O)[nH]ccc32)CCCC[C@H]1F (single isomer, unassigned) [Example 5-177, {(1R,2R)-1-[3-({4-[(1S or 1R)-1-amino-2,2,2-trifluoroethyl]phenyl}amino)-4-oxo-4,5-dihydro-1H-pyrazolo[4,3-c]pyridin-1-yl]-2-fluorocyclohexyl} acetonitrile] | 0.09 | 0.16
15 | CN(C)S(=O)(=O)c1ccc(Nc2nn([C@]3(CC#N)COCC[C@@H]3F)c3cc[nH]c(=O)c23)cc1 (single isomer, unassigned) [Example 5-180, 4-({1-[(3R,4S or 3S,4R)-3-(cyanomethyl)-4-fluorotetrahydro-2H-pyran-3-yl]-4-oxo-4,5-dihydro-1H-pyrazolo[4,3-c]pyridin-3-yl}amino)-N,N-dimethylbenzene-sulfonamide] | 0.84 | 1.84
16 | CN(C)S(=O)(=O)c1ccc(Nc2nn([C@@]3(CC#N)COCC[C@H]3F)c3cc[nH]c(=O)c23)cc1 (single isomer, unassigned) [Example 5-181, 4-({1-[(3S,4R or 3S,4R)-3-(cyanomethyl)-4-fluorotetrahydro-2H-pyran-3-yl]-4-oxo-4,5-dihydro-1H-pyrazolo[4,3-c]pyridin-3-yl}amino)-N,N-dimethylbenzene-sulfonamide] | 0.29 | 0.95
17 | N#CC[C@@]1(n2nc(Nc3ccc(C(N)C(F)(F)F)cc3)c3c(=O)[nH]ccc32)CCCOC1 (single isomer, unassigned) [Example 5-187, {(3S)-3-[3-({4-[(1R or 1S)-1-amino-2,2,2-trifluoroethyl]phenyl}amino)-4-oxo-4,5-dihydro-1H-pyrazolo[4,3-c]pyridin-1-yl]tetrahydro-2H-pyran-3-yl}acetonitrile] | 0.19 | 0.58
